Measurements as given in patent publication US10314843B2, “Combinations for the treatment of neoplasms using quiescent cell targeting and inhibitors of mitosis” (Felicitex Therapeutics, Inc., priority 2016, dated 2019).

Columns and labels:
Assay type in all cases: cell-based
DMS273 cells [1] = test: CellTiter-Glo cell viability assay, DMS273 cells; settings: Homo sapiens, DMS-273, DMS273 cells
Text: (§1) The following cell lines were obtained from ATCC and cultured according to the ATCC recommendations: DMS273—small cell lung cancer cell line; H1975—non-small cell lung cancer cell line harboring L858R and T790M mutations in EGFR TK; A549—a non-small cell lung cancer cell line with wild type EGFR; LNCap—prostate cancer cell line; SW620—colon cancer cell line; MiaPaCa2—pancreatic cancer cell line; PANC1—pancreatic cancer cell line; OVCAR3—ovarian cancer cell line; SK-OV-3—ovarian cancer cell line.
(§2) For viability analysis, cells were seeded into 96-well plates at 2×10^3-6×10^3 cells/well; the plated number of cells depended on cell size and rate of proliferation aiming for approximately 50% confluency. After seeding, the cells were allowed to attach for 24 hours incubated at 37° C. in a humidified 5% CO2 atmosphere.
(§3) The treatments were performed using at least 6 different concentrations of a compound in 1:3 serial dilutions in DMSO such that the DMSO concentration in the cell medium was <1%. The cell cultures were incubated for an additional 96 hours in 5% CO2 incubator at 37° C. Treatments were performed in triplicate. Results were analyzed by CellTiter-Glo™ Luminescent Cell Viability Assay (Promega, cat. #G7571) according to the manufacturer's instructions using Spectra MAX Gemini Spectrophotometer (Molecular Devices).

A549 cells = test: CellTiter-Glo cell viability assay, A549 cells; settings: Homo sapiens
Text: as §1, §2, §3

H1975 cells = test: CellTiter-Glo cell viability assay, H1975 cells; settings: Homo sapiens, NCI-H1975, H1975 cells
Text: as §1, §2, §3

PANC1 cells = test: CellTiter-Glo cell viability assay, PANC1 cells; settings: Homo sapiens, PANC-1, PANC1 cells
Text: as §1, §2, §3

SW620 cells [2] = test: CellTiter-Glo cell viability assay, SW620 cells; settings: Homo sapiens, SW-620, SW620 cells
Text: as §1, §2, §3

HCC827 cells = test: CellTiter-Glo cell viability assay, HCC827 cells; settings: Homo sapiens
Experimental: as §2, §3

SK-OV-3 cells = test: CellTiter-Glo cell viability assay, SK-OV-3 cells; settings: Homo sapiens, SK-OV-3, SK-OV-3 cells
Text: as §1, §2, §3

OVCAR3 cells = test: CellTiter-Glo cell viability assay, OVCAR3 cells; settings: Homo sapiens, OVCAR-3, OVCAR3 cells
Text: as §1, §2, §3

LNCap cells = test: CellTiter-Glo cell viability assay, LNCap cells; settings: Homo sapiens
Text: as §1, §2, §3

DMS273 cells [3] = test: FACS cell cycle distribution (Acridine Orange), DMS273 cells; settings: mitotic inhibitor alone, FBS+ media, 24 hours (2.7 nM paclitaxel; 1.1 nM vincristine; 8.1 nM vinorelbine)
Text: as §1
(§4) Cell cultures were seeded into 6-well plates at 3×10^5-6×10^5 cells/well; the plated number of cells depended on cell size and rate of proliferation, aiming for approximately 50% confluency. After seeding, the cells were allowed to attach for 24 hours while incubated at 37° C. in a humidified 5% CO2 atmosphere, and then treated with compounds for desired amount of time (usually 24 hours) incubating under same conditions. Then the cells were harvested by trypsinization, pooled with the floating cells, washed in PBS, and fixed in 70% ice-cold ethanol overnight. For Acridine Orange (AO) staining, fixed cells were washed once with ice-cold PBS, re-suspended in 100 μL PBS, followed by addition of 200 μL of permeabilizing solution and 600 μL AO staining solution. The measurements were performed with Guava easyCyte HT flow cytometer (EMD Millipore) using the blue laser for excitation at 488 nm, monitoring emission of the AO-DNA complex at 526 nm and AO-RNA complex at 650 nm. The complete protocol and composition of buffers are described in the literature (Darzynkiewicz Z, Juan G, and Srour E F (2004) Differential Staining of DNA and RNA (2004). Current Protocols in Cytometry, Chapter 7:Unit 7.3).

SW620 cells [4] = test: FACS cell cycle distribution (Acridine Orange), SW620 cells; settings: paclitaxel alone (2 nM), FBS+ media, 24 hours
Text: as §1, §4

| SMILES | EC50 (DMS273 cells [1]; Compound I-7 not present) [nM] | EC50 (DMS273 cells [1]; Compound I-7 present at 2 μM) [nM] | EC50 (DMS273 cells [1]; Compound I-7 present at 4 μM) [nM] | EC50 (A549 cells; Compound I-7 not present) [nM] | EC50 (A549 cells; Compound I-7 present at 3 μM) [nM] | EC50 (A549 cells; Compound I-7 present at 6 μM) [nM] | EC50 (H1975 cells; Compound I-7 not present) [nM] | EC50 (H1975 cells; Compound I-7 present at 2 μM) [nM] | EC50 (H1975 cells; Compound I-7 present at 4 μM) [nM] | EC50 (PANC1 cells; Compound I-7 not present) [nM] | EC50 (PANC1 cells; Compound I-7 present at 2 μM) [nM] | EC50 (PANC1 cells; Compound I-7 present at 4 μM) [nM] | EC50 (SW620 cells [2]; Compound I-5 not present) [nM] | EC50 (SW620 cells [2]; Compound I-5 present at 2 μM) [nM] | EC50 (SW620 cells [2]; Compound I-5 present at 4 μM) [nM] | EC50 (SK-OV-3 cells; Compound I-7 not present) [nM] | EC50 (SK-OV-3 cells; Compound I-7 present at 2 μM) [nM] | EC50 (SK-OV-3 cells; Compound I-7 present at 4 μM) [nM] | EC50 (OVCAR3 cells; Compound I-7 not present) [nM] | pharmacological quiescence (fraction of cells in G0 phase) (DMS273 cells [3]) | further results |
| --- | --- | --- | --- | --- | --- | --- | --- | --- | --- | --- | --- | --- | --- | --- | --- | --- | --- | --- | --- | --- | --- |
| CC[C@@H]1C(=O)N(C)c2cnc(Nc3ccc(C(=O)NC4CCN(C)CC4)cc3OC)nc2N1C1CCCC1 [BI2536] | 6.2 | 4.1 | 1.7 | 6.2 | 4.1 | 1.7 | 46.3 | 17.3 | < 0.04 | 7.3 | 4.4 | 2.5 | – | – | – | – | – | – | – | – | – |
| C[C@@H](Oc1cc(-n2cnc3ccc(CN4CCN(C)CC4)cc32)sc1C(N)=O)c1ccccc1C(F)(F)F [GSK461364] | 430 | 240 | 120 | 1200 | 500 | 200 | 1900 | 970 | 580 | 500 | 300 | 200 | – | – | – | – | – | – | – | – | – |
| CC(=O)O[C@@]12CO[C@@H]1C[C@H](O)[C@@]1(C)C(=O)[C@H](O)C3=C(C)[C@@H](OC(=O)[C@H](O)[C@@H](NC(=O)OC(C)(C)C)c4ccccc4)C[C@@](O)([C@@H](OC(=O)c4ccccc4)[C@H]21)C3(C)C [docetaxel] | 0.64 | 0.38 | 0.14 | 1.4 | – | – | – | – | – | – | – | – | 2.85 | 0.69 | < 0.015 | 2.5 | 1.5 | 0.3 | 0.85 | – | EC50 (HCC827 cells; Compound I-7 not present): 1.8 nM; EC50 (HCC827 cells; Compound I-7 present at 2 μM): 0.6 nM; EC50 (HCC827 cells; Compound I-7 present at 4 μM): 0.03 nM; EC50 (A549 cells; Compound I-7 present at 2 μM): 0.6 nM; EC50 (A549 cells; Compound I-7 present at 4 μM): 0.1 nM; EC50 (OVCAR3 cells; Compound I-7 present at 2 μM): 0.52 nM; EC50 (OVCAR3 cells; Compound I-7 present at 4 μM): < 0.04 nM |
| CC(=O)O[C@H]1C(=O)[C@@]2(C)[C@H]([C@H](OC(=O)c3ccccc3)[C@]3(O)C[C@H](OC(=O)[C@H](O)[C@@H](NC(=O)c4ccccc4)c4ccccc4)C(C)=C1C3(C)C)[C@]1(OC(C)=O)CO[C@@H]1C[C@@H]2O [paclitaxel] | 2.7 | 1.9 | 0.9 | 4.8 | 2.5 | 0.7 | – | – | – | – | – | – | 8.1 | 2.3 | 0.2 | 9.7 | 9.4 | 4.8 | 3.3 | does not result in pharmacological quiescence | EC50 (LNCap cells; Compound I-5 not present): 3.2 nM; EC50 (LNCap cells; Compound I-5 present at 2 μM): 2.1 nM; EC50 (LNCap cells; Compound I-5 present at 4 μM): 0.9 nM; EC50 (HCC827 cells; Compound I-7 not present): 4.2 nM; EC50 (HCC827 cells; Compound I-7 present at 3 μM): 2.5 nM; EC50 (HCC827 cells; Compound I-7 present at 6 μM): 0.6 nM; EC50 (SK-OV-3 cells; Compound I-7 present at 8 μM): 4.7 nM; EC50 (SK-OV-3 cells; Compound I-7 present at 10 μM): 5.2 nM; EC50 (OVCAR3 cells; Compound I-7 present at 3 μM): 2.8 nM; EC50 (OVCAR3 cells; Compound I-7 present at 6 μM): 1.7 nM; pharmacological quiescence (fraction of cells in G0 phase) (SW620 cells [4]): does not result in pharmacological quiescence |
| CC[C@]1(O)C[C@H]2CN(CCc3c([nH]c4ccccc34)[C@@](C(=O)OC)(c3cc4c(cc3OC)N(C=O)[C@H]3[C@@](O)(C(=O)OC)[C@H](OC(C)=O)[C@]5(CC)C=CCN6CC[C@]43[C@@H]65)C2)C1 [vincristine] | – | – | – | – | – | – | – | – | – | – | – | – | – | – | – | 8.7 | – | 2.1 | 1.2 | does not result in pharmacological quiescence | EC50 (DMS273 cells [1]; Compound I-5 not present): 1.1 nM; EC50 (DMS273 cells [1]; Compound I-5 present at 2 μM): 0.4 nM; EC50 (DMS273 cells [1]; Compound I-5 present at 4 μM): < 0.04 nM; EC50 (SK-OV-3 cells; Compound I-7 present at 8 μM): 1 nM; EC50 (OVCAR3 cells; Compound I-7 present at 2 μM): 0.8 nM; EC50 (OVCAR3 cells; Compound I-7 present at 4 μM): 0.1 nM; EC50 (H1975 cells; Compound I-5 not present): 1.5 nM; EC50 (H1975 cells; Compound I-5 present at 2 μM): 0.85 nM; EC50 (H1975 cells; Compound I-5 present at 4 μM): 0.35 nM |
| CCC1=C[C@@H]2CN(C1)Cc1c([nH]c3ccccc13)[C@@](C(=O)OC)(c1cc3c(cc1OC)N(C)[C@H]1[C@@](O)(C(=O)OC)[C@H](OC(C)=O)[C@]4(CC)C=CCN5CC[C@]31[C@@H]54)C2 [vinorelbine] | – | – | – | 27 | – | – | – | – | – | – | – | – | – | – | – | 15.1 | 10.1 | 4.7 | 2.4 | does not result in pharmacological quiescence | EC50 (DMS273 cells [1]; Compound I-5 not present): 1.1 nM; EC50 (DMS273 cells [1]; Compound I-5 present at 2 μM): 0.4 nM; EC50 (DMS273 cells [1]; Compound I-5 present at 4 μM): < 0.04 nM; EC50 (A549 cells; Compound I-7 present at 2 μM): 16 nM; EC50 (A549 cells; Compound I-7 present at 4 μM): 6 nM; EC50 (OVCAR3 cells; Compound I-7 present at 1 μM): 2.4 nM; EC50 (OVCAR3 cells; Compound I-7 present at 3 μM): 0.1 nM; EC50 (H1975 cells; Compound I-5 not present): 9.5 nM; EC50 (H1975 cells; Compound I-5 present at 2 μM): 5.2 nM; EC50 (H1975 cells; Compound I-5 present at 4 μM): 2.1 nM |
